The values that follow are results of earlier work, collected in patent US10863763B2, “Prebiotic compositions and uses thereof” (priority 2013, dated 2020).

Where two headings read alike, the source gives them in different places.

For data set [1] the following is noted: in vivo.
For data set [2] the following is noted: meta-analysis, 10 trials, n=489; 95% CI 1.8, 0.4.
Assay in data set [3]: not given
The source holds these as a separate data set.

Assay in data set [4]: not given
This is another data set of the same source.

For data set [5] the following is noted: 21 g/d, 3 months; BMI >25 kg/m2, n=48; relative to maltodextrin control.
The conditions of data set [6]: 8 g/d for 12 months; adolescents, n=97; placebo 1.2.
The conditions of data set [7]: 16 g/d × 2 wk v maltodextrin placebo.
Data set [8] relates to anorexic gut peptides (GLP-1 & PYY). The conditions noted are these: after 2 weeks of supplementation, relative to maltodextrin placebo.
Data set [9] concerns lactobacilli and bifidobacteria in the faeces. The note with it: 4.5 g/d for 21 d; healthy and constipated adults.
Assay in data set [10]: not given
The source holds these as a separate data set.

The conditions of data set [11]: in vivo. The source holds these as a separate data set.
The conditions of data set [12]: 4 h 15 min after administration; 58 normal to slightly overweight women.
For data set [13] the following is noted: 50% of patty fat replaced, v full fat patty.
The conditions of data set [14]: heating at high temperatures for 60 min.
For data set [15] the following is noted: enriched cereal bars, 2 day test period.
Assay in data set [16]: not given
This is another data set of the same source.

The mark [17] stands for this setting: 11 RCT, overweight and obese adults.
The mark [18] stands for this setting: low pH alone or Maillard reaction conditions.

Regarding `[Cr]` [chromium], the “mean difference in weight in favour of chromium over placebo” value (11 RCT, n=866, 95% CI −0.96, −0.03, 137 to 1000 μg/d) is -0.5 kg. For the same compound, under setting [17], the “BMI or waist to hip circumference” value is on record as “no effect” and the percentage body fat entry is “modest reduction”. Besides, the “adverse effects in participants” value (disappeared on withdrawal, reappeared on reintroduction) was “watery stools, vertigo, weakness, nausea, vomiting, dizziness and headaches”. Also, the “adverse effects reported by other authors” value in data set [1] is “constipation, decreased appetite and urticaria”.
On to chromium picolinate, for which the “weighted mean difference in weight in favour of chromium picolinate over placebo” value in data set [2] is listed as 1.1 kg.
For fructooligosaccharides [FOS], the prebiotic activity entry in data set [3] (heating at low pH) is recorded as “reduced”. Moreover, the prebiotic activity result in [3] (setting [18]) is “stable”. Moreover, in data set [4] (in vivo), the “detrimental effects on mineral absorption, lipid metabolism or glycaemic control” value is “failed to find evidence”; the “single dose at which GI adverse effects (bloating, flatulence and diarrhoea) become evident” value is over 20 g/day; the “treatment-related toxicity, genotoxicity or carcinogenicity” value was “no evidence”. Moreover, the weight change in [5] is on record as −1.03 (SD 0.43) kg. The “increase in BMI over 12 months” value in [6] is recorded as 0.7 kg/m2. Further, in data set [7], the fullness at dinner entry was “increased”; the “prospective food intake at dinner” value was “decreased”; the “reduction in total energy intake over a 24 hour test period” value was 5%; the “satiety at breakfast and dinner” value is given as “significantly increased”. Also, the “release of anorexic gut peptides (GLP-1 & PYY) in response to a test meal” value in [8] is reported as “minor transient increases”.
Consider glucomannan, for which, in data set [9], the “SOFA fatty acid concentrations in the faeces” value was “increased”; the “proportion of lactobacilli and bifidobacteria in the faeces” value is “increased”. Also, the weight loss in data set [10] (9 RCT, n=379, trials averaging 5.2 weeks, 95% CI −1.53, −0.05, 1.24 to 15.1 g/d) was 0.79 kg. In [10] (biscuits or granola bars), the “weight change in the 3 studies supplying glucomannan in biscuits or granola bars” value is recorded as “failed to report any significant weight change”. Further, the “weight loss in obese subjects (mean)” value in [10] (obese subjects) is listed as −1.30 (−1.69, −0.91) kg. Besides, the “safety in toxicological and genotoxicity studies” value in data set [11] is given as “safe”.
On to inulin, for which the prebiotic activity entry in data set [3] (heating at low pH) was “reduced”; in data set [3] (setting [18]) it was “stable”. In addition, the “decrease in energy intake at an ad libitum lunch” value in data set [12] was 89.84 kcal. Further, in data set [13], the measures of satiety result is “no effect”. The “total fat intake and total energy intake on the test day” value in data set [13] (33 males) is “lower”. Further, the “degradation to di-D-fructose dianhydrides” value in data set [14] is “substantial degradation”. The “energy intake or any of the 6 subjective ratings of hunger between treatments” value in data set [15] was “no difference”. Moreover, the “treatment-related toxicity, genotoxicity or carcinogenicity” value in data set [4] (animal studies and clinical trial reports) is “no evidence”. In addition, the “detrimental effects on mineral absorption, lipid metabolism or glycaemic control” value in [4] (in vivo) is “failed to find evidence”.
Consider short chain FOS [scFOS], for which the “measures of satiety at breakfast or lunch and food intake during an ad libitum lunch” value in data set [16] (two separate doses of 0, 5 and 8 g) is reported as “failed to alter”. Also, in data set [16] (women consuming the 16 g dose), the “energy intake over the remainder of the day” value is listed as “significantly lower”.
Consider β-glucan [reference compound], for which the “energy intake or any of the 6 subjective ratings of hunger between treatments” value in [15] is “no difference”.
